According to patent US20250066344A1 (BRISTOL-MYERS SQUIBB COMPANY, priority 2021, published 2025):

Biological target: T1, human RXFP1 (Homo sapiens, UniProt Q9HBX9)
T1 construct: expressed in transfected cells
T1 sequence (Q9HBX9 1-757): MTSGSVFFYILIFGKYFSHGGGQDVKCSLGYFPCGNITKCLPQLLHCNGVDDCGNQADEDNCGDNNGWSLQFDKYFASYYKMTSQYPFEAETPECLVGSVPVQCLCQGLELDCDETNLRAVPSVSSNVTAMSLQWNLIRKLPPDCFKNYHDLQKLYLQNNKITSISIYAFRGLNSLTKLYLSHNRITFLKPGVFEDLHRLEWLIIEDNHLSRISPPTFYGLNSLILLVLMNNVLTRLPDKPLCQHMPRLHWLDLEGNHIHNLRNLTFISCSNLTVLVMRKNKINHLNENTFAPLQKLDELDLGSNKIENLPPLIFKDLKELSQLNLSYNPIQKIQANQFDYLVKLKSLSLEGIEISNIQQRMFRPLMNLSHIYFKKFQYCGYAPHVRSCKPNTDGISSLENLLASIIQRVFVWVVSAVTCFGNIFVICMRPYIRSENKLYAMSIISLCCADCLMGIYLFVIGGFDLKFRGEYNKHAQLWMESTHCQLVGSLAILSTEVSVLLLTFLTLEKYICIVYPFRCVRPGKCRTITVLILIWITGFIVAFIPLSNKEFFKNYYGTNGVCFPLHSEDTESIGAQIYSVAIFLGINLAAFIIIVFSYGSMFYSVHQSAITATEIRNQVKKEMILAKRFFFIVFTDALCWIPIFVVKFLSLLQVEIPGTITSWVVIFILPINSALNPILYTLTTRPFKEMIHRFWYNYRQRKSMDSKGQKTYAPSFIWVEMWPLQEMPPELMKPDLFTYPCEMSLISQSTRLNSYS
Assay: RXFP1 cyclic adenosine monophosphate (cAMP) assay, hRXFP1 HEK293
Type: cell-based
Conditions: HEK293 cells stably expressing human RXFP1; 30 min at room temperature; HTRF cAMP
Protocol: RXFP1 Cyclic Adenosine Monophosphate (cAMP) Assays. Human embryonic kidney cells 293 (HEK293) cells and HEK293 cells stably expressing human RXFP1, were cultured in MEM medium supplemented with 10% qualified FBS, and 300 μg/ml hygromycin (Life Technologies). Cells were dissociated and suspended in assay buffer. The assay buffer was HBSS buffer (with calcium and magnesium) containing 20 mM HEPES, 0.05% BSA, and 0.5 mM IBMX. Cells (3000 cells per well, except 1500 cell per well for HEK293 cells stably expressing human RXFP1) were added to 384-well Proxiplates (Perkin-Elmer). Cells were immediately treated with test compounds in DMSO (2% final) at final concentrations in the range of 0.010 nM to 50 μM. Cells were incubated for 30 min at room temperature. The level of intracellular cAMP was determined using the HTRF HiRange cAMP assay reagent kit (Cisbio) according to manufacturer's instructions. Solutions of cryptate conjugated anti-cAMP and d2 fluorophore-labelled cAMP were made in a supplied lysis buffer separately. Upon completion of the reaction, the cells were lysed with equal volume of the d2-cAMP solution and anti-cAMP solution. After a 1 h room temperature incubation, time-resolved fluorescence intensity was measured using the Envision (Perkin-Elmer) at 400 nm excitation and dual emission at 590 nm and 665 nm. A calibration curve was constructed with an external cAMP standard at concentrations ranging from 2.7 μM to 0.1 μM by plotting the fluorescent intensity ratio from 665 nm emission to the intensity from the 590 nm emission against cAMP concentrations. The potency and activity of a compound to […] cAMP production was then determined by fitting to a 4-parametric logistic equation from a plot of cAMP level versus compound concentrations.
The examples disclosed below were tested in the human RXFP1 (hRXFP) HEK293 cAMP assay described above and found to have agonist activity. Tables 1-3, lists EC50 values in the hRXFP1 HEK293 cAMP assay measured for the examples.
Table A lists EC50 values in the hRXFP1 HEK293 cAMP assay measured for the examples.

Row | Compound | EC50
1 | COc1ccc(C(=O)N2CCC3(CC2)COC3)cc1C(=O)Nc1cc2c(cc1C(=O)Nc1ccc(F)c(C(F)(F)F)c1)OC(F)(F)O2 [Example 42, 2,2-difluoro-N-(4-fluoro-3-(trifluoromethyl)phenyl)-6-(2-methoxy-5-(2-oxa-7-azaspiro[3.5]nonane-7-carbonyl)benzamido) benzo[d][1,3]dioxole-5-carboxamide] | 1200 nM
2 | COc1ccc(C2=NOC3(CCNC3)C2)cc1C(=O)Nc1cc2c(cc1C(=O)Nc1ccc(F)c(C(F)(F)F)c1)OC(F)(F)O2 (stereo not drawn) [Example 66, 2,2-difluoro-N-(4-fluoro-3-(trifluoromethyl)phenyl)-6-(2-methoxy-5-(1-oxa-2,7-diazaspiro[4.4]non-2-en-3-yl)benzamido)benzo[d] [1,3]dioxole-5-carboxamide] | 338 nM
3 | COc1ccc(C2=NOC3CC(CO)CC23)cc1C(=O)Nc1cc2c(cc1C(=O)Nc1ccc(F)c(C(F)(F)F)c1)OC(F)(F)O2 (stereo not drawn) [Example 98] | 1.3 nM
4 | COCCOC1(C2CC(c3ccc(OC)c(C(=O)Nc4cc5nc(C)sc5cc4C(=O)Nc4ccc(F)c(C(F)(F)F)c4)c3)=NO2)CC1 (stereo not drawn) [Example 12, N-(4-fluoro-3-(trifluorometh-yl)phenyl)-5-(2-methoxy-5-(5-(1-(2-meth-oxyethoxy)-cyclopropyl)-4,5-dihydro-isoxazol-3-yl)-benzamido)-2-methylbenzo [d]thiazole-6-carboxamide] | 290 nM
5 | COc1ccc(C2CC3(CNC3)C2)cc1C(=O)Nc1cc2c(cc1C(=O)Nc1ccc(F)c(C(F)(F)F)c1)OC(F)(F)O2 [Example 92, 2,2-difluoro-N-(4-fluoro-3-(trifluoromethyl)phenyl)-6-(2-methoxy-5-(2-azaspiro[3.3]heptan-6-yl)benzamido)benzo[d] [1,3]dioxole-5-carboxamide] | 2640 nM
6 | COc1ccc(C2=NOC3CN(CC(C)(C)O)CC23)cc1C(=O)Nc1cc2c(cc1C(=O)Nc1ccc(F)c(C(F)(F)F)c1)OC(F)(F)O2 (stereo not drawn) [Example 45, 2,2-difluoro-N-(4-fluoro-3-(trifluoromethyl)phenyl)-6-(5-(5-(2-hydroxy-2-methylpropyl)-3a,5,6,6a-tetrahydro-4H-pyrrolo[3,4-d]isoxazol-3-yl)-2-methoxybenzamido)benzo[d][1,3]dioxole-5-carboxamide] | 6 nM
7 | COc1ccc(C2=NOC3COCC23)cc1C(=O)Nc1cc2nc(C)sc2cc1C(=O)Nc1ccc(F)c(C(F)(F)F)c1 (stereo not drawn) [Example 3, N-(4-fluoro-3-(trifluorometh-yl)phenyl)-5-(2-methoxy-5-(3a,4,6,6a-tetrahydrofuro [3,4-d]isox-azol-3-yl)-benzamido)-2-methylbenzo [d]thiazole-6-carboxamide] | 8.6 nM
8 | COc1ccc(C2=NOC3CC(O)CC23)cc1C(=O)Nc1cc2nc(C)sc2cc1C(=O)Nc1ccc(F)c(C(F)(F)F)c1 (single isomer, unassigned) [Example 23, N-(4-fluoro-3-(trifluorometh-yl)phenyl)-5-(5-(5-hydroxy-3a,5,6,6a-tetrahydro-4H-cyclopenta [d]isoxazol-3-yl)-2-methoxy-benzamido)-2-methylbenzo [d]thiazole-6-carboxamide] | 750 nM
9 | COc1ccc(C(=O)N2CCCC(CO)C2)cc1C(=O)Nc1cc2c(cc1C(=O)Nc1ccc(F)c(C(F)(F)F)c1)OC(F)(F)O2 (stereo not drawn) [Example 37, 2,2-difluoro-N-(4-fluoro-3-(trifluoromethyl)phenyl)-6-(5-(3-(hydroxymethyl)piperidine-1-carbonyl)-2-methoxybenzamido) benzo[d][1,3]dioxole-5-carboxamide] | 56 nM
10 | COc1ccc(C2CCCN(CC(N)=O)CC2)cc1C(=O)Nc1cc2c(cc1C(=O)Nc1ccc(F)c(C(F)(F)F)c1)OC(F)(F)O2 (stereo not drawn) [Example 96, 6-(5-(1-(2-amino-2-oxoethyl)azepan-4-yl)-2-methoxybenzamido)-2,2-difluoro-N-(4-fluoro-3-(trifluoromethyl)phenyl) benzo[d][1,3]dioxole-5-carboxamide] | 339 nM

Continued, values first:

Row | EC50 | Compound
11 | 683 nM | COc1ccc(-c2nc3c(s2)CNCC3)cc1C(=O)Nc1cc2c(cc1C(=O)Nc1ccc(F)c(C(F)(F)F)c1)OC(F)(F)O2 [Example 52, 2,2-difluoro-N-(4-fluoro-3-(trifluoromethyl)phenyl)-6-(2-methoxy-5-(4,5,6,7-tetrahydrothiazolo[5,4-c]pyridin-2-yl)benzamido)benzo[d][1,3]dioxole-5-carboxamide]
12 | 14 nM | COc1cc(F)c(C(=O)NCC2(S(C)(=O)=O)CC2)cc1C(=O)Nc1cc2c(cc1C(=O)Nc1ccc(F)c(C(F)(F)F)c1)OC(F)(F)O2 [Example 36, N1-(2,2-difluoro-6-((4-fluoro-3-(trifluoromethyl)phenyl)carbamoyl)benzo[d] [1,3]dioxol-5-yl)-4-fluoro-6-methoxy-N3-((1-(methylsulfonyl)cyclopropyl)methyl)iso-phthalamide]
13 | 85 nM | COc1ccc(-c2cc(C(=O)NS(C)(=O)=O)ccc2F)cc1C(=O)Nc1cc2c(cc1C(=O)Nc1ccc(F)c(C(F)(F)F)c1)OC(F)(F)O2 [Example 47, N3-(2,2-difluoro-6-((4-fluoro-3-(trifluoromethyl)phenyl)carbamoyl)benzo[d][1,3]dioxol-5-yl)-6′-fluoro-4-methoxy-N3′-(methylsulfonyl)-[1,1′-biphenyl]-3,3′-dicarboxamide]
14 | 154 nM | COc1ccc(C2CCCN(S(C)(=O)=O)C2)cc1C(=O)Nc1cc2c(cc1C(=O)Nc1ccc(F)c(C(F)(F)F)c1)OC(F)(F)O2 (single isomer, unassigned) [Example 49, 2,2-difluoro-N-(4-fluoro-3-(trifluoromethyl)phenyl)-6-(2-methoxy-5-(1-(methylsulfonyl)piperidin-3-yl)benzamido)benzo[d][1,3]dioxole-5-carboxamide]
15 | 37 nM | COc1ccc(-c2cc(S(=O)(=O)NC(C)(C)C)ccc2F)cc1C(=O)Nc1cc2c(cc1C(=O)Nc1ccc(F)c(C(F)(F)F)c1)OC(F)(F)O2 [Example 64, 6-(5′-(N-(tert-butyl)sulfamoyl)-2′-fluoro-4-methoxy-{1,1′-biphenyl]-3-carboxamido)-2,2-difluoro-N-(4-fluoro-3-(trifluoromethyl)phenyl) benzo[d][1,3]dioxole-5-carboxamide]
16 | 116 nM | COc1ccc(-c2cc(C(=O)O)ccc2F)cc1C(=O)Nc1cc2c(C)noc2cc1C(=O)Nc1ccc(F)c(C(F)(F)F)c1 [Example 31, 6-fluoro-3′-((6-((4-fluoro-3-(trifluoromethyl)phenyl)carbamoyl)-3-methylbenzo[d]isoxazol-5-yl)carbamoyl)-4′-methoxy-[1,1′-biphenyl]-3-carboxylic acid]
17 | 9.8 nM | CC(C)(C)NS(=O)(=O)c1ccc(F)c(-c2cc3c(c(C(=O)Nc4cc5c(cc4C(=O)Nc4ccc(F)c(C(F)(F)F)c4)OC(F)(F)O5)c2)OC(C)(C)C3)c1 [Example 101, 6-(5-(5-(N-(tert-butyl)sulfamoyl)-2-fluorophenyl)-2,2-dimethyl-2,3-dihydrobenzofuran-7-carboxamido)-2,2-difluoro-N-(4-fluoro-3-(trifluoromethyl)phenyl) benzo[d][1,3]dioxole-5-carboxamide]
18 | 125 nM | COc1ccc(-c2cc(C(=O)O)ccc2F)cc1C(=O)Nc1cc2c(cc1C(=O)Nc1ccc(F)c(C(F)(F)F)c1)OC(F)(F)O2 [Example 57, 3′-((2,2-difluoro-6-((4-fluoro-3-(trifluoromethyl)phenyl)carbamoyl)benzo[d][1,3]dioxol-5-yl)carbamoyl)-6-fluoro-4′-methoxy-[1,1′-biphenyl]-3-carboxylic acid]
